US8063018B2, “Bivalent thrombin binding molecules comprising linkers” (National Research Council of Canada, priority 2004, dated 2011)
“And” between values parts separate entries of the source, which are not always exact repeats. Identical values can stand only once. Like-named read-outs stand apart in the source and are kept apart here. Blank lines part the entries; values can stand above or below the molecule they belong to. Non-standard residues stand in square brackets, D forms with d. Primed or numbered codes have the meaning given here. No end group written: not given here. *: point of attachment. Benzenesulfonyl(4-tBu) = CC(C)(C)c1ccc(S(=O)(=O)*)cc1; dPip′ = not defined here

Tests used:
α-thrombin = α-thrombin (Homo sapiens, UniProt P00734); assay: Effect of calcium on inhibition of the amidolytic activity of thrombin (S-3266); assay type: biochemical; design: chromogenic substrate proteolysis by human α-thrombin; conditions: 50 and 100 mM calcium, 0.6 nM thrombin, 25° C.
thrombin [1] = molecular target: T1, thrombin (Homo sapiens, UniProt P00734); assay: Kinetic amidolytic assay with chromogenic substrate S-2238 (inhibition constants); assay type: biochemical
Description: Peptides were freeze-dried and their identity was confirmed by ion-spray mass spectrometry. Clotting assays were carried out by use of the protocols described previously (DiMaio and others, 1990, 21698-21703; Witting and others, 1992, 737-743). The assay employs bovine plasma fibrinogen dissolved at 0.1% in 50 mM Tris-Cl, 100 mM NaCl, 0.1% PEG-8000 at pH 7.6 (i.e. the clotting buffer). Each assay mixture contained a certain concentration of the peptide, and the reaction was started by the addition of human thrombin to a final concentration of 0.6-1.2 nM. Optical absorbance increase at 420 nm caused by fibrin clot formation was measured at 25° C. or 37° C. using the Spectramax plate reader. The onset clotting time was determined as an intersection of the baseline and the extrapolated linear portion of the OD change curve. The concentration of a peptide needed to double the clotting time was defined as IC50 (DiMaio and others, 1990, 21698-21703). Kinetic amidolytic curves were obtained in clotting buffer at 25° C. using eight inhibitor concentrations and three to five concentrations of the chromogenic substrate S-2238 (Chromogenix) (DiMaio and others, 1990, 21698-21703). Inhibition constants were extracted from Lineweaver-Burk equation by using weighted linear regression. Errors in Ki determination were estimated by using Monte-Carlo sampling with 1-3% variance of the experimental points. Peptide concentrations were determined spectrophotometrically using predicted extinction coefficients at 278 nm (Gill and von Hippel, 1989, 319-326).

thrombin [2] = molecular target: T1, thrombin; assay: Fibrinogen clotting assay catalyzed by thrombin; assay type: biochemical; conditions: for IC50: IC50, nM (37° C.), 37° C., concentration needed to double the clotting time; for Clotting onset time: 150 nM peptide, 0.6 nM thrombin
thrombin [3] = molecular target: T1, thrombin; conditions: cited from earlier work
[4] = Calcium binding followed by proton NMR; conditions: CaCl2 titration, pH 5.5
Description: Looking at the results in FIG. 6, panels a, b, c, d show changes in the proton NMR spectra of Ac-[…]NH2 (SEQ. ID. NO. 109) (P3230, panels a, b) and Ac-[…]NH2 (SEQ. ID. NO. 110) (P3231, panels c, d) upon the addition to the initial ˜450 μL of the corresponding peptide in 20 mM sodium acetate-d3 buffer, pH 5.5, containing 10% D2O, of 1 μL (final CaCl2 concentration ˜0.22 mM), additional 2 μL (final CaCl2 concentration ˜0.66 mM), additional 10 μL (final CaCl2 concentration ˜2.8 mM) of 100 mM CaCl2, and additional 10 μL (final CaCl2 concentration ˜23.9 mM) of 1 M CaCl2. Panels e and f show changes in the proton NMR spectrum of a disulfide-linked peptide Bbs-Arg-(D-Pip)-Gly-Cys . . . […](SEQ. ID. No. 16) upon the addition to the initial volume of ˜450 μL of 1 μL (final CaCl2 concentration ˜0.22 mM), additional 2 μL (final CaCl2 concentration ˜0.66 mM) of 100 mM CaCl2, and additional 10 μL (final CaCl2 concentration ˜22.2 mM) of 1 M CaCl2.
An inhibitor with a linker known to bind specific metal ions will be affected by the presence of these ions in solution. Two peptides homologous to the calcium-binding loop of troponin C were designed and established that they bind calcium ions in solution. The peptides have the following sequences—Ac-[…]NH2 (P3230) (SEQ. ID. NO. 109) and Ac-[…]NH2 (P3231) (SEQ. ID. NO. 110). The peptides were synthesized, purified and their identity was confirmed as described in Example 1. They were tested for calcium binding by use of NMR. For this both freeze-dried peptides were reconstituted at a concentration of approximately 0.5 mM in 20 mM sodium acetate-d3 buffer, pH 5.5, containing 10% D2O. Proton spectra of the peptides were recorded at 800 MHz, 15° C., before and after addition of increasing amounts of 0.1 and 1 M stock solutions of CaCl2 in the same buffer. FIGS. 6a,b,c,d show changes in the proton NMR spectra of these two peptides upon the addition to the initial volume of ˜450 μL of 1 μL (final CaCl2 concentration ˜0.22 mM), additional 2 μL (final CaCl2 concentration ˜0.66 mM), additional 10 μL (final CaCl2 concentration ˜2.8 mM) of 100 mM CaCl2, and additional 10 μL (final CaCl2 concentration ˜23.9 mM) of 1 M CaCl2. The changes in the spectra confirm binding of calcium with affinity in mM range.
One of the two designed peptides was used to construct a calcium-responsive bivalent thrombin inhibitor. The disulfide-linked bivalent thrombin inhibitor (corresponding to SEQ. ID. NO. 91) prepared by cross-oxidation of cysteine thiol groups from two peptides Bbs-Arg-(D-Pip)-Gly-Cys (SEQ. ID. NO. 4) and […](SEQ. ID. NO. 114) (preparation described in Example 1) was tested for its ability to bind calcium and inhibit amidolytic reaction in the presence and absence of calcium. […]

[5] = molecular target: T2, SH2 domain from the Grb4 adaptor protein (Mus musculus, UniProt O55033); conditions: tyrosine-phosphorylated state; read-out: Affinity for the SH2 domain from Grb4; cited from earlier work
T2 sequence (O55033 285-379 limits assumed): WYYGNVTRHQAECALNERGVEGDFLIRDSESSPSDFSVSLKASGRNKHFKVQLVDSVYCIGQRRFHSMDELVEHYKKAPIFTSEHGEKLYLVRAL

CaCdc42 (R150K) = molecular target: T3, CaCdc42 (R150K) (Candida albicans, UniProt P0CY33, R150K); assay: Fluorescence titration of sNBD-labeled, GMPPCP-loaded CaCdc42 (R150K) with CRIB peptides; assay type: binding
T3 construct: made in house; host or cells: E. coli BL21
Description: In order to construct a bivalent peptide ligand for Candida Cdc42 (CaCdc42) (with a suitable linker) (FIG. 12), the binding affinities of component peptides derived from the CRIB domains of Candida Cla4 and Step 20 were determined. Residue K150 of the R150K CaCdc42 mutant was covalently modified with the fluorescent probe, sNBD (Molecular Probes, Eugene, Oreg.), essentially as described by Nomanbhoy and Cerione (Nomanbhoy, T. and Cerione, R. A., 1999, 15878-15884.). The stoichiometry of the fluorescent probe per protein molecule was estimated at 1.13, based on protein concentration determined with ε280nm=13,610 M^−1 cm^−1 (Gill, S. C. and von Hippel, P. H., 1989, 319-326), and using the absorbance of the sNBD moiety of ε463nm=22,000 M^−1 cm^−1. Interaction of the CRIB peptides with sNBD-labeled CaCdc42 was monitored using extrinsic fluorescence measurements with a Hitachi F-2500 fluorescence spectrophotometer. Samples of sNBD-labeled, activated CaCdc42 were added in the assay buffer (50 mM phosphate, pH 6.8, 50 mM NaCl and 5 mM MgCl2) to a cuvette being continuously stirred. The protein concentration was 1 μM. Individual CRIB peptide dissolved in the same assay buffer was added drop-wise to the cuvette. The mixture was excited at 488 nm with an excitation slit width of 5 nm. The emission spectra were scanned from 510 nm to 590 nm. The fluorescence emission intensity at the emission maximum 545 nm was determined from each spectrum and the final value was obtained by averaging the values from five scans of the same sample. […]
The Kd values for the binding of the CRIB peptides to sNBD-labeled activated CaCdc42 were determined by fitting the fluorescence titration data to a simple bimolecular association model as described by Leonard et al (Leonard, D. A., and others, 1997, 1173-1180). […]
[formula] The fluorescence intensity (F) is related to the dissociation constant, Kd as follows,
[formula] where F0 and Ft are the fluorescence intensities at the starting and end points of the titration, respectively. […] Average Kd values were determined from multiple independent measurements.

T3 sequence (P0CY33 1-178 R150K): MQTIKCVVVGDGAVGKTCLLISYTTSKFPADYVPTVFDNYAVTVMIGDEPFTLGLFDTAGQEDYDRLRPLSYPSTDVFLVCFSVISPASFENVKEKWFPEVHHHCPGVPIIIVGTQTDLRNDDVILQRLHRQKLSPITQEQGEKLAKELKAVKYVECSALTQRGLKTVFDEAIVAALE

Molecule: CC[C@H](C)[C@H](NC(=O)[C@H](CCC(=O)O)NC(=O)[C@H](CCC(=O)O)NC(=O)[C@H](Cc1ccccc1)NC(=O)[C@H](CC(=O)O)NC(=O)CNC(=O)[C@H](CO)NC(=O)CNC(=O)[C@H](CO)NC(=O)CNC(=O)[C@H](CO)NC(=O)CNC(=O)[C@H](CO)NC(=O)CNC(=O)[C@H]1CCCCN1C(=O)[C@H](CCCNC(=N)N)NS(=O)(=O)c1ccc(C(C)(C)C)cc1)C(=O)N1CCC[C@H]1C(=O)N[C@@H](CCC(=O)O)C(=O)N[C@@H](CCC(=O)O)C(=O)N[C@@H](Cc1ccc(O)cc1)C(=O)N[C@@H](CC(C)C)C(=O)N[C@@H](CCC(N)=O)C(=O)O [P3150]
Effect of calcium on inhibition potency (α-thrombin): no visible effect
Ki (thrombin [1]; 25° C., S-2238, clotting buffer, read-out: KI, nM (25° C.)): 0.5 ± 0.2 nM
IC50 (thrombin [2]): 0.5 ± 0.1 nM

Molecule: CC[C@H](C)[C@H](NC(=O)[C@H](CC(C)C)NC(=O)[C@H](CCCCN)NC(=O)[C@H](CCC(N)=O)NC(=O)[C@H](CCC(=O)O)NC(=O)CNC(=O)[C@H]1CCCCN1C(=O)[C@H](CCCNC(=N)N)NS(=O)(=O)c1ccc(C(C)(C)C)cc1)C(=O)N[C@@H](CO)C(=O)N[C@@H](CCC(=O)O)C(=O)N[C@@H](CCC(=O)O)C(=O)N[C@@H](CC(=O)O)C(=O)N[C@@H](CC(C)C)C(=O)NCC(=O)N[C@@H](CC(=O)O)C(=O)N[C@@H](Cc1ccccc1)C(=O)N[C@@H](CCC(=O)O)C(=O)N[C@@H](CCC(=O)O)C(=O)N[C@H](C(=O)N1CCC[C@H]1C(=O)N[C@@H](CCC(=O)O)C(=O)N[C@@H](CCC(=O)O)C(=O)N[C@@H](Cc1ccc(O)cc1)C(=O)N[C@@H](CC(C)C)C(=O)N[C@@H](CCC(N)=O)C(=O)O)[C@@H](C)CC [P3182]
Ki (thrombin [1]): 66 ± 13 nM
Effect of antibody 9E10 on inhibitory potency (thrombin [2]; 150 nM inhibitor, ~1.2 μM 9E10): reversed the inhibitory potency
Clotting onset time (thrombin [2]; 1.2 μM anti-c-myc antibody 9E10): approximately 230 s
Clotting onset time (thrombin [2]; no antibody): approximately 530 s
IC50 (thrombin [2]): ~25 nM

Molecule: Bbs-Arg-(D-Pip)-Gly ({Benzenesulfonyl(4-tBu)}-Arg-[dPip′]-Gly) [H1]
KI of the constituent binding moiety (thrombin [3]; monovalent moiety alone): low μM range

Effect of calcium on inhibition potency (α-thrombin; listed as SEQ. ID. NO. 91): altered inhibition
Effect of calcium on inhibition potency (α-thrombin; listed as calcium-responsive disulfide-linked bivalent thrombin inhibitor): decreased
Affinity of calcium binding [4]: mM range
Molecule: Bbs-Arg-(D-Pip)-Gly-Cys . . . Cys-Asp-Lys-Asn-Ala-Asp-Gly-Trp-Ile-Asp-Asn-Gly-Asp-Phe-Glu-Glu-Ile-Pro-Glu-Glu-Tyr-Leu-Gln (CDKNADGWIDNGDFEEIPEEYLQ; not fully specified (N-terminus); printed as Bbs-Arg-(D-Pip)-Gly-Cys . . . Cys-Asp-Lys-Asn-Ala-Asp-Gly-Trp-Ile-Asp-Asn-Gly-Asp-Phe-Glu-Glu-Ile-Pro-Glu-Glu-Tyr-Leu-Gln; also: N-terminal part Bbs-Arg-(D-Pip)-Gly-Cys . . . precedes Cys1, intervening residues not given here) [3243-3255]

Molecule: CPHYEKVSG [ephrinB2301-309, peptide derived from the ephrinB cytoplasmic tail]
Kd [5]: 200 nM

Affinity of calcium binding [4]: mM range
Molecule: DKNADGWIDNGDFE [P3231]

Affinity of calcium binding [4]: millimolar range
Molecule: DKNADGWIDNGDFE [SEQ. ID. NO. 17]

Affinity of calcium binding [4]: mM range
Molecule: DKNADGWIDNGEFE [P3230]

Molecule: EVNIKISTPFNAKHLAHVGIDDNGNFTGLPDTWKSLLQHSKIT [mCst20-cCla4]
Kd (CaCdc42 (R150K)): 2640 ± 200 nM

Molecule: EVNIKISTPFNAKHLAHVGIDDNGSYTGLPIEWERLLSASGIT [eCst20]
Kd (CaCdc42 (R150K)): 46 nM

Molecule: GGNSGFPGPINFTHKVHVGFDRKSLTIYAQVQKNFTGLPDTWKSLLQHSKIT [eCla4-SLAM, GGNSGFPGPINFTHKVHVGFDRKSLTIYAQVQKNFTGLPDTWKSLLQHSKIT]
Kd (CaCdc42 (R150K)): 127 ± 70 nM

Molecule: WDPRPQRHNDGDFEEIPEEYLQ [SEQ. ID. NO. 18]
Ki (thrombin [3]; subject of another patent application, read-out: KI for thrombin inhibition): ~17 nM and 17 nM
